In the supplement of paper PMC10307832:

What was measured:
Assay in all cases: relative viability (nuclei count vs DMSO), 5 days (fraction); higher = more cells survive
Veliparib + Phenformin = compound: C[C@]1(c2nc3c(C(N)=O)cccc3[nH]2)CCCN1 [Veliparib] + N=C(N)NC(=N)NCCc1ccccc1 [Phenformin] (partner 250 µM)
Outline: (§1)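 Dosing by pin tool came one day after lung cancer cell lines were seeded in 1536-well plates, using either one drug or a fixed anchor-drug dose plus five library-drug doses (not always all listed) in √10 steps. After 5 days, nuclei were counted on 4× images. Relative viability is treated-well nuclei count divided by vehicle-well nuclei count, and values are medians of duplicate plates.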

[1] = compound: COC1=CC=C(C=C1)CN2C=CC3=C2C=C(C=C3)C(=O)NO + NC(=O)Nc1cc(-c2cccc(F)c2)sc1C(=O)N[C@H]1CCCNC1 [AZD7762] (partner 0.2 µM)
Outline: as §1

[2] = compound: COC1=CC=C(C=C1)CN2C=CC3=C2C=C(C=C3)C(=O)NO + Cc1cc(Nc2cc(N3CCN(C)CC3)nc(Sc3ccc(NC(=O)C4CC4)cc3)n2)n[nH]1 [Tozasertib] (partner 0.1 µM)
Outline: as §1

[3] = compound: COC1=CC=C(C=C1)CN2C=CC3=C2C=C(C=C3)C(=O)NO + Nc1nc2[nH]cc(CCc3ccc(C(=O)N[C@@H](CCC(=O)O)C(=O)O)cc3)c2c(=O)[nH]1 [Pemetrexed] (partner 0.2 µM)
Outline: as §1

Row | Cell Line | relative viability (Veliparib + Phenformin; first compound 0.02 µM) | relative viability (Veliparib + Phenformin; first compound 0.06325 µM) | relative viability (Veliparib + Phenformin; first compound 0.2 µM) | relative viability (Veliparib + Phenformin; first compound 0.6325 µM) | relative viability (Veliparib + Phenformin; first compound 2 µM) | relative viability ([1]; first compound 0.08 µM) | relative viability ([1]; first compound 0.253 µM) | relative viability ([1]; first compound 0.8 µM) | relative viability ([1]; first compound 2.53 µM) | relative viability ([1]; first compound 8 µM) | relative viability ([2]; first compound 0.08 µM) | relative viability ([2]; first compound 0.253 µM) | relative viability ([2]; first compound 0.8 µM) | relative viability ([2]; first compound 2.53 µM) | relative viability ([2]; first compound 8 µM) | relative viability ([3]; first compound 0.08 µM) | relative viability ([3]; first compound 0.253 µM) | relative viability ([3]; first compound 0.8 µM) | relative viability ([3]; first compound 2.53 µM) | relative viability ([3]; first compound 8 µM)
1 | NCI-H1666 | 0.546 | 0.507 | 0.544 | 0.487 | 0.534 | 0.799 | 0.872 | 0.782 | 0.784 | 0.765 | 0.498 | 0.622 | 0.571 | 0.641 | 0.628 | 0.761 | 0.914 | 0.84 | 0.918 | 0.87
2 | NCI-H1734 | 0.358 | 0.379 | 0.383 | 0.33 | 0.455 | – | 0.612 | 0.559 | 0.567 | 0.481 | – | 0.236 | 0.242 | 0.251 | 0.23 | – | 0.413 | 0.427 | 0.4 | 0.414
3 | NCI-H1755 | 0.637 | 0.629 | 0.631 | 0.518 | 0.608 | 0.395 | 0.439 | 0.497 | 0.516 | 0.35 | 0.512 | 0.688 | 0.619 | 0.584 | 0.524 | 0.421 | 0.379 | 0.443 | 0.437 | 0.512
4 | NCI-H1793 | 0.392 | 0.384 | 0.466 | 0.329 | 0.361 | – | 0.726 | 0.444 | 0.557 | 0.406 | – | 0.337 | 0.297 | 0.398 | 0.3 | – | 0.943 | 0.997 | 1.08 | 0.698
5 | NCI-H1915 | 0.379 | 0.36 | 0.345 | 0.36 | 0.361 | 0.494 | 0.712 | 0.676 | 0.705 | 0.606 | 0.259 | 0.431 | 0.422 | 0.355 | 0.401 | 0.441 | 0.527 | 0.49 | 0.485 | 0.447
6 | NCI-H1944 | 0.211 | 0.188 | 0.207 | 0.197 | 0.204 | – | 0.516 | 0.481 | 0.475 | 0.428 | – | 0.262 | 0.261 | 0.262 | 0.234 | – | 0.63 | 0.568 | 0.705 | 0.527
7 | NCI-H1975 | 0.434 | 0.395 | 0.407 | 0.368 | 0.397 | 0.655 | 0.766 | 0.775 | 0.768 | 0.576 | 0.69 | 0.852 | 0.707 | 0.692 | 0.551 | 0.288 | 0.294 | 0.299 | 0.291 | 0.286
8 | NCI-H1993 | 0.568 | 0.567 | 0.561 | 0.552 | 0.482 | 0.746 | 0.745 | 0.857 | 0.8 | 0.85 | 0.568 | 0.627 | 0.517 | 0.6 | 0.567 | 0.542 | 0.529 | 0.648 | 0.603 | 0.549
9 | NCI-H2085 | – | 0.734 | 0.795 | 0.652 | 0.699 | 0.971 | 0.953 | 1.07 | 1 | 0.942 | 0.859 | 0.817 | 0.96 | 0.907 | 0.751 | 1.07 | 0.951 | 1.02 | 0.941 | 0.948
10 | NCI-H2087 | 0.334 | 0.467 | 0.428 | 0.435 | 0.486 | 1.31 | 1.24 | 1.5 | 1.17 | 1.25 | 0.253 | 0.293 | 0.246 | 0.294 | 0.234 | 0.575 | 0.56 | 0.669 | 0.599 | 0.535
11 | NCI-H2126 | 0.556 | 0.535 | 0.519 | 0.498 | 0.541 | 1 | 1.03 | 0.992 | 1.09 | 0.962 | 0.736 | 0.801 | 0.856 | 0.856 | 0.754 | 0.669 | 0.73 | 0.672 | 0.706 | 0.649
12 | NCI-H2170 | 0.472 | 0.41 | 0.415 | 0.401 | 0.459 | 0.859 | 0.797 | 0.849 | 0.826 | 0.711 | 0.439 | 0.869 | 0.694 | 0.729 | 0.616 | 0.276 | 0.268 | 0.266 | 0.26 | 0.235
13 | NCI-H2342 | 0.583 | 0.589 | 0.506 | 0.579 | 0.587 | 0.475 | 0.44 | 0.468 | 0.379 | 0.389 | 0.497 | 0.701 | 0.544 | 0.531 | 0.47 | 0.726 | 0.788 | 0.791 | 0.753 | 0.829
14 | NCI-H2347 | 0.426 | 0.273 | 0.473 | 0.464 | 0.366 | 0.598 | 0.748 | 0.967 | 0.732 | 0.677 | 0.463 | 0.415 | 0.613 | 0.611 | 0.503 | 0.399 | 0.44 | 0.405 | 0.473 | 0.453
15 | NCI-H2405 | 0.388 | 0.371 | 0.411 | 0.393 | 0.308 | 0.706 | – | 0.85 | 0.796 | 0.505 | 0.523 | 0.807 | 0.716 | 0.689 | 0.656 | 0.979 | – | 1.02 | 1.03 | 0.948
16 | NCI-H3122 | 0.335 | 0.345 | 0.384 | 0.357 | 0.387 | 0.977 | 1.02 | 1.04 | 0.999 | 0.819 | – | 0.327 | 0.397 | 0.352 | 0.382 | 0.2 | 0.208 | 0.195 | 0.209 | 0.193
17 | PC-3 [JPC-3] | 0.471 | 0.478 | 0.498 | 0.469 | 0.495 | 0.799 | – | 0.965 | 0.869 | 0.652 | 0.861 | 0.912 | 0.921 | 0.88 | 0.908 | 1.04 | – | 1.14 | 1.21 | 1.12
18 | PC-14 | – | 0.526 | 0.647 | 0.59 | 0.435 | 0.263 | 0.276 | 0.393 | 0.315 | 0.381 | 0.302 | 0.548 | 0.561 | 0.638 | 0.486 | 0.107 | 0.132 | 0.14 | 0.135 | 0.152
19 | RERF-LC-KJ | 0.408 | 0.442 | 0.4 | 0.396 | 0.47 | 0.888 | 0.773 | 0.918 | 0.948 | 0.967 | 0.427 | 0.494 | 0.499 | 0.49 | 0.388 | 0.442 | 0.502 | 0.482 | 0.501 | 0.521
20 | SW 900 | – | – | 0.679 | 0.504 | 0.508 | 0.646 | 0.596 | 0.579 | 0.597 | 0.403 | 0.558 | 0.647 | 0.574 | 0.612 | 0.489 | 0.446 | 0.47 | 0.478 | 0.486 | 0.474
